Data: patent publication US20090197853A1, “METHODS AND COMPOSITIONS OF TREATING CANCER” (priority 2005, published 2009)
Entries after “also recorded” stand apart in the source; their conditions may differ.

Tests used:
A549 cells [1] = test: Proliferation (tetrazole reduction/MTT), A549; assay type: cell-based, human; details: for A549 cell proliferation: exponential phase, 24 hours treatment plus 48 hr growth, zinc up to 100 μM
Procedure: (§1) Methods: The proliferation of exponential phase cultures was assessed by colorimetric assay. In brief, 2×10^5 suspension cells per well were seeded on 96-well V-bottom microtiter plates. Stock solutions of control vehicle, MGd or Zn(OAc)2 in medium were added and plates were incubated at 37° C. under a 5% CO2/95% air atmosphere. After 24 hours, medium was replaced with fresh medium. After 2 additional days, medium was exchanged with fresh medium (150 μL/well) supplemented with 3-(4,5-dimethylthiazol-2-yl)-2,5-diphenyltetrazolium bromide (MTT, 0.5 mg/mL, Sigma Biochemical, St. Louis, Mo.). Plates were incubated at 37° C. and viable cells measured.

PC3 cells [2] = test: Proliferation, PC3; assay type: cell-based
Procedure: as §1

PC3 cells [3] = test: Colony forming assay, PC3; assay type: cell-based; details: 10 μM MGd, 75 μM zinc
[4] = test system: metallothionein gene family members and ZnT1; test: Northern blot analysis, A549 cultures; assay type: cell-based, human; details: for Metallothionein transcript levels: A549, 24 hours, 50 μM MGd, Zn(OAc)2 100 μM, CdCl2 50 μM, FIG. 2B
Procedure: Methods: Northern Blot Analysis—Plateau phase cultures of A549 cells were prepared as described above, except that T-25 flasks were used, and the number of cells initially plated scaled accordingly. Cultures were treated with 50 μM MGd, 5 μM Gd(OAc)3 or 5% mannitol for 4 hours, whereupon cultures were washed twice with PBS and RNA harvested as above. Alternatively, 7-day plateau phase A549 or PC3 cultures were treated with 50 μM MGd, 50-100 μM Zn(OAc)2, 50 μM CdCl2 or 5% mannitol for 24 hours (A549) or 4 hours (PC3) prior to washing and RNA analysis. Exponential phase Ramos cultures were treated for 6 hours. Northern blots were conducted and analyzed. Radio labeled metallothionein probe, designed to bind to a 113-bp region of 3′-UTR sequences from multiple metallothionein gene family members, was generated using 5′-[…]-3′ (forward) and 5′-[…]-3′ (reverse) PCR primers and the NEBlot kit (New England Biolabs, Inc.). Radio labeled ZnT1 probe was generated in a similar fashion using 5′-[…]-3′ (forward) and 5′-[…]-3′ (reverse) primers.

Ramos cells [5] = test: Reactive oxygen species (DCFA to DCF), Ramos; assay type: cell-based; details: single agents
Procedure: Methods: Reactive oxygen species were measured in live cells as intracellular peroxides by monitoring the oxidation of 2′,7′-dichlorofluorescin-diacetate (DCFA) to 2′,7′-dichlorofluorescein (DCF) (Molecular Probes). Cells (1×10^6 per mL) were incubated in a solution of 1 μg per mL DCFA in 0.5% BSA in HBSS for 15 minutes at 37° C. Two mL additional 0.5% BSA in HBSS was added, cells were isolated by centrifugation, and the pellet re-suspended in a solution of 50 μg/mL 7-aminoactinomycin D (7-AAD) in 0.5% BSA in HBSS. Cell suspensions were incubated at ambient temperature for 2 to 3 minutes, and stored on ice until analysis. The fluorescent intensity in live (i.e., 7-AAD impermeable) cells was analyzed by flow cytometry.

[6] = test system: Ramos B-cell lymphoma cells; test: Proliferation, Ramos; assay type: cell-based; details: 50 μM zinc
Procedure: as §1
as §1, with “Cellular Proliferation—The” for “Methods: The”

[7] = test system: Ramos, Raji, DB, DHL-4, HF-1, Jurkat, K562 and HL-60 cell lines; test: Proliferation of hematologic cell lines; assay type: cell-based; details: for Effect on proliferation: low concentrations of zinc or MGd alone
Procedure: as §1, with “Cellular Proliferation—The” for “Methods: The”

Ramos cells [8] = test: Intracellular free zinc (FluoZin-3 fluorescence), Ramos; assay type: cell-based; details: 10 μM MGd or 50 μM zinc alone
Procedure: Methods: Intracellular Free Zinc. The concentration of intracellular free zinc was assessed using the ion-specific fluorescent probe, FluoZin-3-AM™ (FluoZin-3, Molecular Probes, Inc.). […] Following treatment, cells were isolated by centrifugation. Cell pellets were washed and re-suspended in a solution of 0.5% BSA in PBS.

Thioredoxin reductase = test: Lipoate reduction (thioredoxin reductase activity) in intact A549 cells; assay type: cell-based, human; details: for Inhibition of lipoate reduction: plateau phase A549, two-hour treatment
Procedure: Methods: Lipoate Reduction. Thioredoxin reductase activity was assessed by measuring the rate of lipoate reduction. In brief, A549 or PC3 cells (10,000 cells/well) were plated on 96-well plates and allowed to adhere overnight and grow two additional days until confluent. Cells were treated with MGd, zinc, or 5% mannitol for 2-4 hours, as indicated. Medium was removed, cells were washed with Hanks Balanced Salt Solution (HBSS), and a solution of 5 mM lipoic acid and 1 mM 5,5′-dithiobis(2-nitrobenzoic acid) in HBSS (100 μL/well) was added. Plates were incubated at ambient temperature in the dark. At chosen time intervals, plate absorbance was measured at 405-650 nm. Plate absorbances were normalized to wells containing neither exogenous zinc nor texaphyrin complex to allow plate-to-plate comparison. In some experiments, L-buthionine-[S,R]-sulfoximine (BSO, 100 μM) was added 24 hours prior to MGd or zinc treatment, to inhibit any contribution to lipoate reduction made by glutathione-dependent pathways (28). Actinomycin D (2.5 μg/mL) or cycloheximide (10 μg/mL), where present, was added 1 hour prior to texaphyrin or zinc treatment. Viability was checked on parallel plates using the tetrazolium dye 3-(4,5-dimethylthiazol-2-yl)-5-(3-carboxymethoxyphenyl)-2-(4-sulfophenyl)-2H-tetrazolium (MTS) following the manufacturers protocol (Promega Corp.).

A549 cells [9] = test: Cell viability by propidium iodide exclusion, A549
Procedure: Methods: Cellular Viability. Cell viability was determined by using propidium iodide (PI) flow cytometric analysis. Cells from plateau phase cultures grown in T-25 flasks were harvested as described above, except that cells present in the growth medium and wash solution were isolated by centrifugation and included in the analysis. Cells were resuspended in 1 mL PBS, an aliquot of 3×10^5 cells transferred to a 4 mL tube, and the cells isolated by centrifugation. Cell pellets were resuspended in PBS supplemented with 2 μg/mL propidium iodide (Sigma), incubated for 5 minutes at ambient temperature, and subjected to flow cytometric analysis. Flow cytometry was performed on a FACSCalibur instrument and data were analyzed using the CellQuest Pro software package (BD Biosciences).

With CC(=O)[O-].CC(=O)[O-].[Zn+2] [Zn(OAc)2, Zinc acetate] the A549 cell proliferation (A549 cells [1]) was “modestly inhibited”, the PC3 cell proliferation (PC3 cells [2]) was “inhibited” and the Surviving fraction (PC3 cells [3]) was “without effect”. For the same compound, the Metallothionein transcript levels [4] was “significant increase”, the Metallothionein transcript levels ([4]; listed as zinc) was “raised” and the DCF signal (Ramos cells [5]) was “increased DCF signal”. The Cellular proliferation [6] was “without effect”, the Proliferation ([7]; 50 to 100 μM zinc, four additional B-cell lines, K562, Jurkat) was “inhibited the proliferation” and the Effect on proliferation ([7]; all cell lines) was “no significant effect”. The FluoZin-3 fluorescence (Ramos cells [8]; by 12 hours) was “returned to baseline levels”, the FluoZin-3 fluorescence (Ramos cells [8]; within 2 hours) was “small increases” and the “Inhibition of lipoate reduction” value (Thioredoxin reductase) was at most 30%. For the same compound, the “Cellular viability (propidium iodide exclusion)” value (A549 cells [9]; A549, 24 hours, Zn(OAc)2 100 μM, CdCl2 50 μM, MGd 50 μM) was “no effect on cellular viability”.
With CC(=O)[O-].CC(=O)[O-].CCc1c(CC)c2cc3nc(cnc4cc(OCCOCCOCCOC)c(OCCOCCOCCOC)cc4ncc4nc(cc1[n-]2)C(CCCO)=C4C)C(C)=C3CCCO.O.[Gd+3] [MGd, Motexafin gadolinium] the “Effect of MGd on the anti-proliferative activity of zinc” value (A549 cells [1]; A549, all MGd concentrations tested) was “enhanced the anti-proliferative activity of zinc”, the A549 cell proliferation (A549 cells [1]) was “no effect on proliferation” and the “Effect of MGd on the effect of zinc on proliferation” value (PC3 cells [2]; PC3) was “enhanced the effect of zinc”. The Surviving fraction (PC3 cells [3]) was “without effect”, the Metallothionein transcript levels [4] was “raised; also recorded: significant increase” and the “Induction of metallothionein gene family members and ZnT1 (Northern blot)” value ([4]; A549 plateau phase, 4 hours, 50 μM MGd or 5 μM Gd(OAc)3) was “confirmed the induction; also recorded: induced”. The DCF signal (Ramos cells [5]) was “increased DCF signal”, the Cellular proliferation [6] was “without effect” and the “Effect of MGd on sensitivity to zinc (proliferation)” value ([7]; all cell lines) was “increased”. The “Effect of MGd co-treatment on the inhibition of proliferation by zinc” value ([7]; all lines except HL60) was “potentiated the inhibition by zinc”, the Effect on proliferation ([7]; all cell lines) was “no significant effect” and the FluoZin-3 fluorescence (Ramos cells [8]; by 12 hours) was “returned to baseline levels”. For the same compound, the FluoZin-3 fluorescence (Ramos cells [8]; within 2 hours) was “small increases”, the “Effect of MGd on inhibition of lipoate reduction by zinc” value (Thioredoxin reductase; A549) was “potentiated” and the “Apparent inhibitory concentration of MGd” value (Thioredoxin reductase; A549, dose-dependent effect of MGd on inhibition with zinc) was “approximately 2.5 μM”. For the same compound, the “Concentration above which the effect of MGd on lipoate reduction saturated” value (Thioredoxin reductase; A549, potentiation of zinc inhibition) was “approximately 5 μM”, the “Inhibition of lipoate reduction” value (Thioredoxin reductase) was “approximately 10%” and the “Effect of MGd on the cytotoxicity of CdCl2” value (A549 cells [9]; A549 cells, FIG. 2A) was “attenuated”.
